Measured values from patent US10968181B2, “NRF2 activator” (BIOGEN MA INC., priority 2016, dated 2021).

How the values were obtained:
Nrf2 target genes [1] = assay: Nrf2 target gene expression (qRT-PCR) in tissues of wild type and Nrf2−/− mice; format: in vivo
Description: All procedures involving animals were performed in accordance with standards established in the Guide for the Care and Use of Laboratory Animals as adopted by the U.S. National Institutes of Health. All animal protocols were approved by the Biogen Institutional Animal Care and Use Committee, which is accredited by the Association for Assessment and Accreditation of Laboratory Animal Care International. Female 6-10 week-old wild type C57BL/6 and Nrf2−/− mice (Itoh et al, 1997; maintained at Jackson Labs, Bar Harbor, Me.) were maintained on a 12-hour light/dark cycle and given access to food and water ad libitum.
Compound 12-Ent1 (25 mg/kg) was administered as a single, oral dose in a vehicle of Solutol HS-15/polyethylene glycol/ethanol/water (10/10/10/70) to C57BL/6 (wt) and Nrf2−/− mice. Brain, jejunum, kidney and spleen were collected at 2 or 6 hours after dosing and snap frozen for RNA analysis of Nrf2 target genes.
For RNA preparation, frozen tissues were placed in 2 mL RNAse-free 96-well blocks with 1.5 ml QIAzol Lysis Reagent (QIAgen) and a 3.2 mm stainless steel bead (BioSpec Products, Bartlesville, Okla.). Tissues were disrupted for four cycles of 45 seconds in a Mini-Beadbeater (Biospec Products). RNA was extracted in chloroform and the aqueous phase was mixed with an equal volume of 70% ethanol. Extracted RNA was applied to RNeasy 96 plates and purified by the spin method according to the manufacturer's protocol (RNeasy 96 Universal Tissue Protocol, QIAgen, Hilden Germany).
qRT-PCR was performed from total mRNA isolated from tissues and reverse-transcribed into cDNA according to manufacturer protocols (Life Technologies, Carlsbad, Calif.). 20× Taqman target gene mouse primer/probe sets (see table below) were mixed with cDNA and 2× Taqman Universal Master Mix to a final volume of 20 uL. All final reactions contained 100 ng of cDNA, 900 nM of each primer, and 250 nM TaqMan® probes and were cycled on a QuantStudio™ 12K Flex system (Life Technologies). All samples were measured in triplicate using beta actin as a normalizing gene. Final analysis was performed using the comparative CT method to calculate fold changes and samples were normalized relative to wild type vehicle control at each time point.

HUDEP cells = assay: HbF protein ELISA in cultured HUDEP cells; format: cell-based, human; details: differentiating HUDEP cells, 72 hours, compared to DMSO; FIG. 8
Description: Human Umbilical Derived Erythroid Cells (HUDEP; from Riken Institute, Japan) were cultured in Stemspan SFEM medium (Stemcell Technologies, Vancouver, Canada) supplemented with erythroid cytokines and growth factors. Compound incubations were performed in HUDEP cells cultured in differentiation media.
Differentiating HUDEP cells were cultured with increasing concentrations of 12-Ent1 or equivalent DMSO concentrations for 72 hours and the levels of HbF protein was measured using a commercially available ELISA specific for human HbF (Bethyl Laboratories, TX) based on manufacturer's protocol.

Nrf2 target genes [2] = assay: Gene expression (RT-PCR) in cultured human astrocytes; format: cell-based; details: human astrocytes treated 20 hours; compared to 0.03% DMSO vehicle; FIGS. 1A to 1D
Description: (§1) Human astrocytes from ScienCell (cat #1820) were grown in astrocyte medium per supplier's instructions. Cells cultured for no more than two passages were plated in poly-D-lysine coated 96-well plates at 40,000 cells per well for gene transcription experiments and 20,000 cell per well for glutathione and cytoprotection assays.
Primary cultures of human spinal cord astrocytes were treated with test compounds for 20 hours. The cells were then rinsed in PBS, lysed, and processed for RNA using Ambion Taqman™ Cells-to-CT kit. The resulting cDNA was stored at −20° C. until analysis by real-time polymerase chain reaction (RT-PCR). The cDNA mixture from Cells-to-CT was diluted 5× before loading into PCR. This yields results similar to using 6 ng of purified cDNA. RT-PCR was performed on Life Technologies QuantStudio platform using OpenArray technique according to manufacturer's protocol using the following Taqman primers: […]
The comparative CT method was used to calculate fold changes using ThermoFisher Cloud software for PCR analysis. Samples were compared to 0.03% DMSO vehicle control.

NQO-1 gene = NQO-1 gene induction in spleen of Townes mice; format: in vivo, Townes SCD mouse; details: Townes SS mice, oral single dose 10 or 50 mg/kg or two doses of 25 mg/kg; at least at the 6 hour time point; FIGS. 10A-10C and 12
Source text: (§2) All animal experiments conformed to the guidance issued by the Biogen Institutional Animal Care and Use Committee and are described in approved protocols. The SCD mouse strain used in the in vivo studies is the Townes SCD mouse [Wu L C, Sun C W, Ryan™, Pawlik K M, Ren J, Townes™. Correction of sickle cell disease by homologous recombination in embryonic stem cells. Blood. 2006, 108(4):1183-8]. […] These mice harboring the sickle cell mutations in the hemoglobin β-globins chain show the presence of sickle cell disease characterized by abnormally low hemoglobin, circulating sickle shaped erythrocytes, varying degrees of damage of internal organs such as spleen, liver, and kidney. Male and female Townes SS mice aged 8 to 12 weeks were used for studies described here. […]
(§3) Frozen spleens were placed at room temperature. […] Extracted RNA was then quantitated using a Nanodrop and 1 μg of total RNA was converted to cDNA using VILO Mastermix kit according to manufacturer's protocol.
(§4) cDNA prepared from RNA isolated from tissue samples was used to determine gene expression levels of using Taqman based real time PCR (Life Technologies, ThermoFisher Scientific). […] Results were analyzed using the 7500 software version 2.0.5 and the relative levels of transcripts were measured with GAPDH as the endogenous housekeeping gene control using the 2^−ΔΔCt relative quantification method.

γ-globin gene = γ-globin gene induction in spleen of Townes mice; format: in vivo, Townes SCD mouse; details: Townes SS mice, oral single dose 10, 25 or 50 mg/kg or two doses of 25 mg/kg; at least at the 24 hour time point; FIGS. 9A-9D and 11
Source text: as §2, §3, §4

human astrocytes [3] = assay: Glutathione assay in cultured human astrocytes; format: cell-based; details: 20-hr exposure, FIG. 2
Description: as §1
Intracellular glutathione was measured after a 20-hr exposure to test compounds by a two-step process. First, cells were lysed and luciferin quantitatively generated from substrate, catalyzed by glutathione-S-transferase in the presence of analyte glutathione. Then luciferin was assayed using stabilized luciferase to produce a luminescent signal proportional to the concentration of glutathione (Promega GSH-Glo, cat #V6912).

human astrocytes [4] = assay: Cytoprotection of human astrocytes against sodium arsenite; format: cell-based; details: compound 20 hrs before arsenite, then 22 hrs, FIG. 3
Description: Human astrocytes from ScienCell (cat #1820) were grown in astrocyte medium per supplier's instructions. Cells cultured for no more than two passages were plated in poly-D-lysine coated 96-well plates at 40,000 cells per well for gene transcription experiments and 20,000 cell per well for glutathione and cytoprotection assays. Astrocytes were treated for 20 hrs with test compounds, then the medium was removed and replaced with serum- and supplement-free growth medium with and without 25 μM sodium arsenite. After 22 hrs., cells were washed with PBS, fixed with 4% paraformaldehyde/4% sucrose in PBS, stained with 4′,6-Diamidino-2-phenylindole dihydrochloride (DAPI) and counted by quantitative fluorescence microscopy.

[5] = wild type vs Nrf2−/− mice, 25 mg/kg oral

SMILES: CC(=O)N1CC[C@@H]2C(C)(C)C(=O)C(C#N)=C[C@@]2(C)C1 (single isomer, unassigned) [Compound 12-Ent1]
- expression of Akr1b8, Nqo1, Hmox1 and Osgin1 in kidney (Nrf2 target genes [1]; 25 mg/kg single oral dose, 2 hours and 6 hours after dosing, FIGS. 4A to 4D): increases
- expression of Akr1b8, Nqo1, Hmox1 and Osgin1 in Jejunum (Nrf2 target genes [1]; 25 mg/kg single oral dose, 2 hours and 6 hours after dosing, FIGS. 5A to 5D): increases
- expression of Nqo1, Hmox1 and Osgin1 in spleen (Nrf2 target genes [1]; 25 mg/kg single oral dose, 2 hours and 6 hours after dosing, FIGS. 6A to 6D): increases
- expression of Nqo1, Hmox1 and Osgin1 in brain (Nrf2 target genes [1]; 25 mg/kg single oral dose, 2 hours and 6 hours after dosing, FIGS. 7A to 7D): increases
- Nrf2 dependence of the gene expression increases in Jejunum (Nrf2 target genes [1]; [5]): Nrf2-dependent
- Nrf2 dependence of the gene expression increases in brain (Nrf2 target genes [1]; [5]): Nrf2-dependent
- Nrf2 dependence of the gene expression increases in kidney (Nrf2 target genes [1]; [5]): Nrf2-dependent
- Nrf2 dependence of the gene expression increases in spleen (Nrf2 target genes [1]; [5]): Nrf2-dependent
- HbF protein in cultured HUDEP cells (HUDEP cells): induces
- transcription of Nrf2 target genes, including GCLC, HMOX1, OSGIN1 and NQO1 (Nrf2 target genes [2]): induces transcription
- NQO-1 gene in spleen (NQO-1 gene): induces
- human γ-globin gene in spleen (γ-globin gene): induces
- intracellular glutathione (human astrocytes [3]): increases
- protection from oxidative stress-induced cell death caused by 25 μM sodium arsenite (human astrocytes [4]): protects cells
